In brackets after ≈: the same amount, converted by molar mass. Like-named read-outs stand apart in the source and are kept apart here.
Legend:
[1] = system: Escherichia coli; assay: MIC50/MIC90 determination and MIC against isolates of E. coli; format: cell-based
[2] = system: Pseudomonas aeruginosa; assay: MIC50/MIC90 determination and MIC against isolates of P. aeruginosa; format: cell-based
[3] = system: Acinetobacter baumannii; assay: MIC50/MIC90 determination and MIC against isolates of A. baumannii; format: cell-based
[4] = system: Klebsiella pneumoniae; assay: MIC50/MIC90 determination and MIC against isolates of K. pneumoniae; format: cell-based
[5] = system: Pseudomonas aeruginosa PAO1; assay: Murine neutropenic thigh infection model; format: in vivo, CD-1 mice; details: 8 h, 20 mg/kg
Description: Zg, Committee on Animal Research Ethics-Zagreb) in collaboration with the Croatian Competent Authority and the National Ethics Committee, granting this project a 5-year authorisation, in compliance […]
Animals: The study was performed in male, 6–7 weeks old C57BL/6 mice. Animals were housed in a temperature-controlled room (22±2°C), relative humidity 55±10%, 15–20 air changes per hour, atrificial […]
Sampling: Serial or terminal blood samples were collected into EDTA-coated tubes at the following […]
into Precellys® tubes for all animals. Additional, terminal tissue samples were taken at 1 h for the IV and IP groups. For the SC and IT groups, terminal tissue samples were further taken at 2, 4, 8 h. Urine […]
samples (3 animals) were collected into emtpy tubes and kept chilled, followed by centrifugation at 3000 rpm, 10 min, 4°C. Total urine volume was recorded. […]
(§1) reduce stress and harm arising from experimental procedures, including use of analgesia, access to wet food and additional bedding. The room temperature, relative humidity and maximum background noise were maintained according to Home Office Code of Practice. Mice were exposed to 12-hour light/dark […]
(§2) Mice were immunosuppressed using cyclophosphamide administered subcutaneously (SC) at 150 mg/kg on day minus 4 and at 100 mg/kg on day minus 1 relative to the day of infection. Following […]

[6] = system: Escherichia coli 106-09; assay: Murine peritonitis/sepsis model; format: in vivo, CD-1 female mice; details: 40 mg/kg SC q6h
Description: Mice were infected IP (Figure S7). […]
as §1, §2
CFU/thigh P. aeruginosa PAO1 by intramuscular (IM) injection of 50 µL bacterial suspension into both thighs. Following infection, a single dose of carprofen was administered SC to provide pain relief.
One hour post-inoculation, one group of mice were euthanized to quantify the pre-treatment bacterial burden. […]
At eight or 25 hours post infection, mice were euthanized by overdose of pentobarbitone and death confirmed by cervical dislocation. […] The bacterial burden was quantified following overnight incubation of agar plates at 37°C. For analytical purposes, burdens from individual thighs were counted as independent […]
intravenously. Mice were observed during the study and scored 0 – 4 based on their behavior and clinical signs of discomfort and euthanized at the humane endpoint as a surrogate marker for death. […]

## O=C(O)c1cn(C2CC2)c2cc(N3CCNCC3)c(F)cc2c1=O [Ciprofloxacin, ciprofloxacin]
[1]; Escherichia coli
  MIC: 0.063 to 0.125 µg/mL (≈ 0.19 to 0.377 µM)
[2]; Pseudomonas aeruginosa, ATCCBAA2114, isolate ATCC BAA-2114, read-out: MIC
  MIC: 4 µg/mL (≈ 12.1 µM)
[2]; Pseudomonas aeruginosa, CIP105381, isolate CIP 105381, read-out: MIC
  MIC: 0.5 µg/mL (≈ 1.51 µM)
[2]; Pseudomonas aeruginosa, PAO1, isolate PAO1, read-out: MIC
  MIC: 1 µg/mL (≈ 3.02 µM)
[2]; Pseudomonas aeruginosa, isolate BOR 05, read-out: MIC
  MIC: 16 µg/mL (≈ 48.3 µM)
[2]; Pseudomonas aeruginosa, isolate CAE 02, read-out: MIC
  MIC: 4 µg/mL (≈ 12.1 µM)
[2]; Pseudomonas aeruginosa, isolate CHA, read-out: MIC
  MIC: 0.5 µg/mL (≈ 1.51 µM)
[2]; Pseudomonas aeruginosa, isolate R2255, read-out: MIC
  MIC: 0.5 µg/mL (≈ 1.51 µM)
[2]; Pseudomonas aeruginosa, isolate ROU 01, read-out: MIC
  MIC: 16 µg/mL (≈ 48.3 µM)
[2]; Pseudomonas aeruginosa, isolate SDE 05, read-out: MIC
  MIC: 0.5 µg/mL (≈ 1.51 µM)
[3]; Acinetobacter baumannii, ATCC17978, isolate ATCC17978, read-out: MIC
  MIC: 0.5 µg/mL (≈ 1.51 µM)
[3]; Acinetobacter baumannii, ATCC19187, isolate ATCC19187, read-out: MIC
  MIC: 0.5 µg/mL (≈ 1.51 µM)
[3]; Acinetobacter baumannii, ATCC51432, isolate ATCC51432, read-out: MIC
  MIC: 16 µg/mL (≈ 48.3 µM)
[3]; Acinetobacter baumannii, ATCCBAA747, isolate ATCC BAA-747, read-out: MIC
  MIC: 0.5 µg/mL (≈ 1.51 µM)
[3]; Acinetobacter baumannii, ATCCBAA1605, isolate ATCC BAA-1605, read-out: MIC
  MIC: > 32 µg/mL
[3]; Acinetobacter baumannii, ATCCBAA1710, isolate ATCC BAA-1710, read-out: MIC
  MIC: 32 µg/mL (≈ 96.6 µM)
[3]; Acinetobacter baumannii, ATCCBAA1791, isolate ATCC BAA-1791, read-out: MIC
  MIC: > 32 µg/mL
[3]; Acinetobacter baumannii, ATCCBAA1795, isolate ATCC BAA-1795, read-out: MIC
  MIC: > 32 µg/mL
[3]; Acinetobacter baumannii, ATCCBAA1878, isolate ATCC BAA-1878, read-out: MIC
  MIC: 4 to 8 µg/mL (≈ 12.1 to 24.1 µM)
[3]; Acinetobacter baumannii, CIP105742, isolate CIP 105742, read-out: MIC
  MIC: 0.125 to 0.25 µg/mL (≈ 0.377 to 0.754 µM)
[3]; Acinetobacter baumannii, CIP107292, isolate CIP 107292, read-out: MIC
  MIC: > 32 µg/mL
[3]; Acinetobacter baumannii, NCTC13301, isolate NCTC13301, read-out: MIC
  MIC: > 32 µg/mL
[3]; Acinetobacter baumannii, isolate BM4454, read-out: MIC
  MIC: 32 µg/mL (≈ 96.6 µM)
[3]; Acinetobacter baumannii, isolate G478 (AYE), read-out: MIC
  MIC: > 32 µg/mL
[3]; Acinetobacter baumannii, isolate R831, read-out: MIC
  MIC: 8 µg/mL (≈ 24.1 µM)
[3]; Acinetobacter baumannii, isolate R835, read-out: MIC
  MIC: 32 µg/mL (≈ 96.6 µM)
[4]; Klebsiella pneumoniae, NCTC13439, isolate NCTC13439
  MIC: 16 µg/mL (≈ 48.3 µM)
[4]; Klebsiella pneumoniae, NCTC13442, isolate NCTC13442
  MIC: 4 µg/mL (≈ 12.1 µM)
[5]
  Δlog CFU/g in thigh muscle: –4.06 log CFU/g

## C[C@@H](O)[C@H]1C(=O)N2C(C(=O)O)=C(S[C@@H]3CN[C@H](C(=O)N(C)C)C3)[C@H](C)[C@H]12 [MER, Meropenem]
[6]
  Δlog CFU/mL Blood compared to SOT: –2.98 log CFU/mL
  Δlog CFU/mL PF compared to SOT: –4.33 log CFU/mL

## colistin
[1]; isolate ATCC25922
  MIC: 2 to 4 µg/mL
[1]; isolate ATCC BAA-2340
  MIC: 2 µg/mL
[1]; isolate ATCC BAA-2469
  MIC: 2 µg/mL
[1]; isolate ATCC BAA-2471
  MIC: 1 to 2 µg/mL
[1]; isolate CIP 104103
  MIC: 1 to 2 µg/mL
[1]; isolate CIP 105706
  MIC: 1 to 2 µg/mL
[1]; isolate CIP 107049
  MIC: 2 to 4 µg/mL
[1]; isolate G38
  MIC: 2 µg/mL
[1]; isolate G41 (first listing)
  MIC: 2 µg/mL
[1]; isolate G41 (second listing)
  MIC: 1 µg/mL
[1]; isolate G260
  MIC: 2 µg/mL
[1]; isolate G264
  MIC: 2 µg/mL
[1]; isolate G409
  MIC: 2 µg/mL
[1]; isolate G486
  MIC: 2 µg/mL
[1]; isolate G487
  MIC: 1 µg/mL
[1]; isolate NCTC10418
  MIC: 2 to 4 µg/mL
[1]; isolate NCTC13352
  MIC: 2 to 4 µg/mL
[1]; isolate NCTC13400
  MIC: 1 µg/mL
[1]; isolate NCTC13441
  MIC: 2 µg/mL
[1]; isolate NCTC13846
  MIC: 8 µg/mL
[1]; isolate PRAA1
  MIC: 1 µg/mL
[1]; isolate PRAA3
  MIC: 2 to 4 µg/mL
[1]; isolate PRAA17
  MIC: 2 µg/mL
[1]; isolate PRAA18
  MIC: 2 µg/mL
[1]; isolate PRAA21
  MIC: 2 to 4 µg/mL
[1]; isolate R721
  MIC: 2 µg/mL
[1]; isolate R995
  MIC: 2 µg/mL
[1]; isolate R996
  MIC: 1 µg/mL
[1]; isolate R1535
  MIC: 2 µg/mL
[1]; isolate R2670
  MIC: 1 to 2 µg/mL
[2]; isolate ATCC BAA-2114
  MIC: 2 µg/mL
[2]; isolate BOR 04
  MIC: 4 µg/mL
[2]; isolate BOR 05
  MIC: 4 µg/mL
[2]; isolate CAE 02
  MIC: 2 µg/mL
[2]; isolate CHA
  MIC: 2 µg/mL
[2]; isolate CHRU LILLE VAP11
  MIC: 4 µg/mL
[2]; isolate CHRU LILLE VAP65a
  MIC: 4 µg/mL
[2]; isolate CIP 105250
  MIC: 2 µg/mL
[2]; isolate CIP 105381
  MIC: 2 µg/mL
[2]; isolate CIP 107051
  MIC: 2 µg/mL
[2]; isolate CLI 02
  MIC: 2 to 4 µg/mL
[2]; isolate CLI 03
  MIC: 2 µg/mL
[2]; isolate COL 03
  MIC: 2 µg/mL
[2]; isolate DIJ 02
  MIC: 2 µg/mL
[2]; isolate NANC 01
  MIC: 2 µg/mL
[2]; isolate NANC 06
  MIC: 4 µg/mL
[2]; isolate NCTC13437
  MIC: 2 µg/mL
[2]; isolate PA 43
  MIC: 2 µg/mL
[2]; isolate PAO1
  MIC: 4 µg/mL
[2]; isolate PBI 01
  MIC: 4 µg/mL
[2]; isolate PBI 03G
  MIC: 2 µg/mL
[2]; isolate PBI 07
  MIC: 2 µg/mL
[2]; isolate PGP 02
  MIC: 4 µg/mL
[2]; isolate R1541
  MIC: 4 µg/mL
[2]; isolate R2254
  MIC: 4 µg/mL
[2]; isolate R2255
  MIC: 2 µg/mL
[2]; isolate R2256
  MIC: 2 µg/mL
[2]; isolate ROU 01
  MIC: 4 µg/mL
[2]; isolate SDE 05
  MIC: 2 µg/mL
[2]; isolate STR 02
  MIC: 2 µg/mL
[2]; isolate TOUL 01
  MIC: 2 to 4 µg/mL
[3]; isolate ATCC17978
  MIC: 4 µg/mL
[3]; isolate ATCC19003
  MIC: 2 to 4 µg/mL
[3]; isolate ATCC19187
  MIC: 4 µg/mL
[3]; isolate ATCC19606
  MIC: 4 µg/mL
[3]; isolate ATCC27224
  MIC: 2 µg/mL
[3]; isolate ATCC51432
  MIC: 8 µg/mL
[3]; isolate ATCC BAA-747
  MIC: 4 µg/mL
[3]; isolate ATCC BAA-1605
  MIC: 2 µg/mL
[3]; isolate ATCC BAA-1710
  MIC: 4 to 8 µg/mL
[3]; isolate ATCC BAA-1791
  MIC: 2 µg/mL
[3]; isolate ATCC BAA-1795
  MIC: 8 µg/mL
[3]; isolate ATCC BAA-1878
  MIC: 4 µg/mL
[3]; isolate BM4454
  MIC: 4 to 8 µg/mL
[3]; isolate BM4652 (efflux mutant)
  MIC: 4 µg/mL
[3]; isolate CIP 105742
  MIC: 2 µg/mL
[3]; isolate CIP 107292
  MIC: 4 to 8 µg/mL
[3]; isolate DSM 30008
  MIC: 4 µg/mL
[3]; isolate G478 (AYE)
  MIC: 2 to 8 µg/mL
[3]; isolate NCTC13301
  MIC: 8 µg/mL
[3]; isolate R831
  MIC: 4 to 8 µg/mL
[3]; isolate R835
  MIC: 4 to 8 µg/mL
[4]; isolate ATCC13883
  MIC: 1 µg/mL
[4]; isolate ATCC13883 ColR_
  MIC: 64 µg/mL
[4]; isolate ATCC43816
  MIC: 1 µg/mL
[4]; isolate ATCC BAA-1705
  MIC: 2 µg/mL
[4]; isolate ATCC BAA-1903
  MIC: 1 µg/mL
[4]; isolate ATCC BAA-2342
  MIC: 4 µg/mL
[4]; isolate ATCC BAA-2470
  MIC: 1 µg/mL
[4]; isolate ATCC BAA-2472
  MIC: 2 µg/mL
[4]; isolate ATCC BAA-2473
  MIC: 1 µg/mL
[4]; isolate CIP 104119
  MIC: 1 µg/mL
[4]; isolate CIP 104298
  MIC: 16 µg/mL
[4]; isolate CIP 105705
  MIC: 2 µg/mL
[4]; isolate CIP 106982
  MIC: 2 µg/mL
[4]; isolate Clinical Lyo-01
  MIC: 1 µg/mL
[4]; isolate Clinical Lyo-02
  MIC: 1 µg/mL
[4]; isolate Clinical Lyo-03
  MIC: 2 µg/mL
[4]; isolate Clinical Lyo-04
  MIC: 1 µg/mL
[4]; isolate Clinical Lyo-05
  MIC: 1 µg/mL
[4]; isolate G52
  MIC: 1 µg/mL
[4]; isolate G197
  MIC: 1 µg/mL
[4]; isolate G201
  MIC: 1 µg/mL
[4]; isolate G306
  MIC: 1 µg/mL
[4]; isolate NCTC13438
  MIC: 1 µg/mL
[4]; isolate NCTC13439
  MIC: 2 µg/mL
[4]; isolate NCTC13442
  MIC: 1 µg/mL
[4]; isolate NCTC13443
  MIC: 1 µg/mL
[4]; isolate R750
  MIC: 1 µg/mL
[4]; isolate R1242
  MIC: 1 µg/mL
[4]; isolate R1525
  MIC: 1 µg/mL
[4]; isolate R2673
  MIC: 1 µg/mL

Source: publication PMC11650638, “In Vivo Activity Profiling of Biosynthetic Darobactin D22 against Critical Gram-Negative Pathogens” (ACS Infectious Diseases, 2024)
